Assay results published in patent US8071810B2, “C5a receptor antagonists” (Jerini AG, priority 2005, dated 2011).

target: T1, human C5a receptor (CD88) (Homo sapiens, UniProt P21730); assay: C5a induced enzyme (glucosaminidase) release assay in RBL cells expressing the human C5a receptor (Example 28); type: cell-based; conditions: RBL cells with human C5aR; read-out: IC50 for the inhibition of C5a induced enzyme release
T1 construct: expressed in transfected cells; host or cells: rat basophilic leukemia (RBL) cells, stably transfected
T1 sequence (P21730 1-350): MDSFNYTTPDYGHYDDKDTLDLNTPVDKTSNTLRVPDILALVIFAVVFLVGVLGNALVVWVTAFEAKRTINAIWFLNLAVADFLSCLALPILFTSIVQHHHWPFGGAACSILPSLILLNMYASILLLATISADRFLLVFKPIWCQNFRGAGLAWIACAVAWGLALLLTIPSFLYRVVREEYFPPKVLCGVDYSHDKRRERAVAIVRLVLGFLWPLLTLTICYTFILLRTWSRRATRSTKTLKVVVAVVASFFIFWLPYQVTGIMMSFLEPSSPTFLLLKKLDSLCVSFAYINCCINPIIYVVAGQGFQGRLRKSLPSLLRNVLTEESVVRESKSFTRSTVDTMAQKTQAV
Procedure: Basophile leukemia cells from rats (RBL), which express the human C5a receptor (CD88), are cultivated in DMEM with 10% fetal calf serum, 100 U/ml penicillin, 100 μg/ml streptomycin and 2 mM glutamin (all constituents are from Biochrome, Berlin) at 37° C. and with 10% CO2 until a confluent layer is obtained. All following details refer to a tissue culture flask with 75 cm^2 surface. The used up medium is removed. The cells are washed with 10 ml PBS (Dulbecco's PBS, Biochrome) and then covered with 3 ml cell dissociation solution (CDS, Sigma). The cells are incubated for 1 minute at room temperature. Then the CDS is removed and the cells are incubated for further 10-15 minutes at 37° C. to detach the cells completely from the flask. 20 μl solution of the compound to be testet are used in the assay. […] The dilution series are prepared in ⅓ or ½ steps. […] The cells are counted and centrifuged (200 g, 10 min). The cell pellet is taken up with pre-heated HAG-CM, and the cell density is adjusted to 2×10^6 Zellen/ml. The cells are incubated for 5 minutes at 37° C. 2.7 μl of a cytochalasin B solution (1000 μg/ml in DMSO, Sigma) are added per ml cell suspension. The Zellen are incubated for another 3 min at 37° C. Then, 75 μl of the cell suspension are added to the 20 μl solution containing the compounds to be tested. […] The cells are again incubated for 10 minutes at 37° C. […] After this the plates are put on ice and centrifuged for 3 minutes at 1200×g and 4° C. […] The plate is incubated for 1 hour at 37° C. […] The IC50 value is determined by solving the four parameter equation y=((A−D)/(1+(x/C)^B))+D.

SMILES	IC50
CCc1c(N)cc(Cl)c(CC)c1NC(=O)N(c1ccc(C(C)C)cc1)[C@H](C)c1ccc(OC)cc1 [compound 56, (R)-3-(3-amino-5-chloro-2,6-diethyl-phenyl)-1-(4-isopropyl-phenyl)-1-[1-(4-methoxy-phenyl)ethyl]-urea]	619 nM
Cc1ccc(CN(Cc2ccccc2)C(=O)c2ccccc2-n2cccc2)cc1 [Compound 8, N-Benzyl-N-(4-methyl-benzyl)-2-pyrrol-1-yl-benzamide, reference compound]	1920 nM
CCc1ccc(N(Cc2ccc(Cl)cc2)C(=O)Nc2c(CC)c(N)cc(Cl)c2CC)cc1	86 nM
CCc1c(N)cc(Cl)c(CC)c1NC(=O)N(Cc1ccc(Cl)nc1)c1ccc(C(C)C)cc1	62 nM
CCc1cccc(CC)c1NC(=O)N(Cc1ccc(OC)cc1)c1ccc(C(C)C)cc1 [compound 26, 3-(2,6-diethyl-phenyl)-1-(4-isopropyl-phenyl)-1-(4-methoxy-benzyl)-urea]	524 nM

same assay, conditions: inhibition of C5a induced enzyme release, RBL cells with human C5aR; read-out: Activity-range (antagonistic activity, IC50 enzyme release)

SMILES	IC50
CCc1ccc(CN(C(=O)Nc2c(CC)c(N)cc(Cl)c2CC)c2ccc(C(C)C)cc2)cc1 [compound 35, 3-(3-amino-5-chloro-2,6-diethyl-phenyl)-1-(4-ethyl-benzyl)-1-(4-isopropyl-phenyl)-urea]	200 to 5000 nM
CCc1c(N)cc(Cl)c(CC)c1NC(=O)N(Cc1cccnc1)c1ccc(C(C)C)cc1 [compound 74, 3-(3-amino-5-chloro-2,6-diethyl-phenyl)-1-(4-isopropyl-phenyl)-1-pyridin-3-ylmethyl-urea]	200 to 5000 nM
CCc1c(N)cc(Cl)c(CC)c1NC(=O)N(Cc1ccc(Cl)cc1)c1ccc(C(C)C)cc1 [compound 72, 3-(3-amino-5-chloro-2,6-diethyl-phenyl)-1-(4-chlor-benzyl)-1-(4-isopropyl-phenyl)-urea]	60 to 200 nM
CCc1c(N)cc(Cl)c(CC)c1NC(=O)N(Cc1ccc(C(F)(F)F)cc1)c1ccc(C(C)C)cc1 [compound 49, 3-(3-amino-5-chloro-2,6-diethyl-phenyl)-1-(4-isopropyl-phenyl)-1-(4-trifluormethyl-benzyl)-urea]	200 to 5000 nM
CCc1ccc(N(Cc2ccc(N)cc2)C(=O)Nc2c(CC)c(N)cc(Cl)c2CC)cc1 [compound 116, 1-(4-amino-benzyl)-3-(3-amino-5-chloro-2,6-diethyl-phenyl)-1-(4-ethyl-phenyl)-urea]	200 to 5000 nM
COc1ccc(CN(C(=O)Nc2c(C(C)C)ccc(NC(C)=O)c2C(C)C)c2ccc(C(C)C)cc2)cc1 [compound 27, N-{2,4-diisopropyl-3-[3-(4-isopropyl-phenyl)-3-(4-methoxy-benzyl)-ureido]-phenyl}-acetamide]	> 5000 nM
CCc1c(N)cc(Cl)c(CC)c1NC(=O)N(Cc1ccc(S(C)(=O)=O)cc1)c1ccc(C(C)C)cc1 [compound 64, 3-(3-amino-5-chloro-2,6-diethyl-phenyl)-1-(4-isopropyl-phenyl)-1-(4-methansulfonyl-benzyl)-urea]	200 to 5000 nM
CCc1c(Cl)cc(NCC(=O)OC(C)(C)C)c(CC)c1NC(=O)N(Cc1ccc(OC)cc1)c1ccc(C(C)C)cc1 [compound 45, {5-chloro-2,4-diethyl-3-[3-(4-isopropyl-phenyl)-3-(4-methoxy-benzyl)-ureido]-phenylamino} acetic acid tert-butyl ester]	60 to 200 nM
Cc1ccc(CN(Cc2ccccc2)C(=O)c2ccccc2-n2cccc2)cc1 [Compound 8, N-Benzyl-N-(4-methyl-benzyl)-2-pyrrol-1-yl-benzamide, reference compound]	200 to 5000 nM
CCc1ccc(N)c(CC)c1NC(=O)N(CCc1ccccc1)c1ccc(C(C)C)cc1 [compound 51, 3-(3-amino-2,6-diethyl-phenyl)-1-(4-isopropyl-phenyl)-1-phenethyl-urea]	200 to 5000 nM
CCc1c(N)cc(Cl)c(CC)c1NC(=O)N(Cc1ccc(Cl)cc1)c1ccc(NC(C)=O)cc1 [compound 140, N-{4-[3-(3-amino-5-chloro-2,6-diethyl-phenyl)-1-(4-chloro-benzyl)-ureido]-phenyl}-acetamide]	200 to 5000 nM
CCc1ccc(N(Cc2cnn(CC)c2)C(=O)Nc2c(CC)c(N)cc(Cl)c2CC)cc1 [compound 91, 3-(3-amino-5-chloro-2,6-diethyl-phenyl)-1-(4-ethyl-phenyl)-1-(1-ethyl-1H-pyrazol-4-ylmethyl)-urea]	200 to 5000 nM
CCc1c(N)cc(Cl)c(CC)c1NC(=O)N(Cc1ccc(C)nc1)c1ccc(CC(F)(F)F)cc1 [compound 126, 3-(3-amino-5-chloro-2,6-diethyl-phenyl)-1-(6-methyl-pyridin-3-ylmethyl)-1-[4-(2,2,2-trifluoro-ethyl)-phenyl]-urea]	60 to 200 nM
Cc1ccc([C@H](C)N(C(=O)Nc2c(C)c(N)cc(Cl)c2C)c2ccc(C(C)C)cc2)cc1 [compound 79, (S)-3-(3-amino-5-chloro-2,6-dimethyl-phenyl)-1-(4-isopropyl-phenyl)-1-(1-p-tolyl-ethyl)-urea]	200 to 5000 nM
CCc1ccc(N)c(CC)c1NC(=O)N(Cc1ccc(C(F)(F)F)cc1)c1ccc(C(C)C)cc1 [compound 50, 3-(3-amino-2,6-diethyl-phenyl)-1-(4-isopropyl-phenyl)-1-(4-trifluoromethyl-benzyl)-urea]	200 to 5000 nM
CCc1c(N)cc(Cl)c(CC)c1NC(=O)N(c1ccc(SC)cc1)[C@@H](C)c1ccc(Cl)cc1 [compound 83, (S)-3-(3-amino-5-chloro-2,6-diethyl-phenyl)-1-[1-(4-chloro-phenyl)-ethyl]-1-(4-methylsulfanyl-phenyl)-urea]	60 to 200 nM
CCc1c(Cl)cc(NCc2ccco2)c(CC)c1NC(=O)N(Cc1ccc(OC)cc1)c1ccc(C(C)C)cc1 [compound 36, 3-{3-Chloro-2,6-diethyl-5-[(furan-2-ylmethyl)-amino]-phenyl}-1-(4-isopropyl-phenyl)-1-(4-methoxy-benzyl)-urea]	200 to 5000 nM
CCc1ccc(N(Cc2ccc(-n3cccn3)cc2)C(=O)Nc2c(CC)c(N)cc(Cl)c2CC)cc1 [compound 110, 3-(3-amino-5-chloro-2,6-diethyl-phenyl)-1-(4-ethyl-phenyl)-1-(4-pyrazol-1-yl-benzyl)-urea]	200 to 5000 nM
CCc1ccc(N)c(CC)c1NC(=O)N(Cc1ccccc1OC)c1ccc(C(C)C)cc1 [compound 63, 3-(3-amino-2,6-diethyl-phenyl)-1-(4-isopropyl-phenyl)-1-(2-methoxy-benzyl)-urea]	200 to 5000 nM
CCc1c(N)cc(Cl)c(CC)c1NC(=O)N(Cc1ccccc1OC)c1ccc(C(C)C)cc1 [compound 62, 3-(3-amino-5-chloro-2,6-diethyl-phenyl)-1-(4-isopropyl-phenyl)-1-(2-methoxy-benzyl)-urea]	200 to 5000 nM
CCc1c(N)cc(Cl)c(CC)c1NC(=O)N(Cc1ccccc1)c1ccc(N(C)C)cc1 [compound 128, 3-(3-amino-5-chloro-2,6-diethyl-phenyl)-1-benzyl-1-(4-dimethylamino-phenyl)-urea]	200 to 5000 nM
CCc1ccc(N(Cc2ccc(C)cc2)C(=O)Nc2c(CC)ccc(N)c2CC)cc1 [compound 54, 3-(3-amino-2,6-diethyl-phenyl)-1-(4-ethyl-phenyl)-1-(4-methyl-benzyl)-urea]	200 to 5000 nM
CCc1ccc(N)c(CC)c1NC(=O)N(c1ccc(C(C)C)cc1)[C@H](C)c1ccc(C)cc1 [compound 68, (R)-3-(3-amino-2,6-diethyl-phenyl)-1-(4-isopropyl-phenyl)-1-(1-p-tolyl-ethyl)-urea]	200 to 5000 nM
CCc1ccc(N)c(CC)c1NC(=O)N(c1ccc(C(C)C)cc1)[C@@H](C)c1ccc(OC)cc1 [compound 71, (S)-3-(3-amino-2,6-diethyl-phenyl)-1-(4-isopropyl-phenyl)-1-[1-(4-methoxy-phenyl)-ethyl]-urea]	60 to 200 nM
CCc1c(N)cc(Cl)c(CC)c1NC(=O)N(Cc1cnc(OC)nc1OC)c1ccc(C(C)C)cc1 [compound 77, 3-(3-amino-5-chloro-2,6-diethyl-phenyl)-1-(2,4-dimethoxy-pyrimidin-5-ylmethyl)-1-(4-isopropyl-phenyl)-urea]	200 to 5000 nM
CCc1c(N)cc(Cl)c(CC)c1NC(=O)N(Cc1ccc(Cl)cc1)c1ccc(SC(F)(F)F)cc1 [compound 93, 3-(3-amino-5-chloro-2,6-diethyl-phenyl)-1-(4-chloro-benzyl)-1-(4-trifluoromethylsulfanyl-phenyl)-urea]	200 to 5000 nM
CCc1ccc(N)c(CC)c1NC(=O)N(CC1CCCCC1)c1ccc(C(C)C)cc1 [compound 61, 3-(3-amino-2,6-diethyl-phenyl)-1-cyclohexylmethyl-1-(4-isopropyl-phenyl)-urea]	200 to 5000 nM
